Experiments:
MLKL [1] = biological target: T1, MLKL (Homo sapiens, UniProt Q8NB16); test: MLKL degradation assay in HepG2 cell line (western blot); type: cell-based; design: endogenous in cells; host or cells: HepG2 or HaCaT; conditions: cell line not given; for Degradation assay (Degradation %) 1 μM: compound 1 μM; for Degradation assay (Degradation %) 10 μM: compound 10 μM
T1 sequence (Q8NB16 1-471): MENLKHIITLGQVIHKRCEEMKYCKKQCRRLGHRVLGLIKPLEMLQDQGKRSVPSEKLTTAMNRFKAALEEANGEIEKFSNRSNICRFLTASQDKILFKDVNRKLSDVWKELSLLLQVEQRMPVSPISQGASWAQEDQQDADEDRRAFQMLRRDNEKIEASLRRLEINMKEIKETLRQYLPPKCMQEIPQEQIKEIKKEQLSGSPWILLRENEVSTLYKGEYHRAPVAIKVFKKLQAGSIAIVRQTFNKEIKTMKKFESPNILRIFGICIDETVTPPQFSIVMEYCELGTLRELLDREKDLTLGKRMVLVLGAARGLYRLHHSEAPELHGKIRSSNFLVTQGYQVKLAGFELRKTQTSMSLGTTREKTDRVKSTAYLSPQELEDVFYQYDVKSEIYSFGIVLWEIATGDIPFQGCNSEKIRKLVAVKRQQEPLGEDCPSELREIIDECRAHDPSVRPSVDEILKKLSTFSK
Outline: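 Chemiluminescent western blot signal reports remaining MLKL protein in HepG2 cells after 20-24 h treatment with compound at a final 1 or 10 μM. Equal protein (10-15 μg, BCA) is loaded per lane.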

MLKL [2] = biological target: T1, MLKL; test: Measurement of binding affinity with MLKL receptor (competitive binding assay, Kd); design: made in house; host or cells: HEK 293 cell line (T7 phage in E. coli BL21-derived host is also described)
Outline: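 Kd from an immobilized-ligand competition format: the DNA-tagged kinase from HEK 293 expression is eluted and quantified by qPCR. Compounds added from 111× DMSO stocks, final DMSO 0.9%.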

FADD−/− Jurkat cells = test: Necroptosis inhibition assay, TNF-α-induced necroptosis (CellTiter-Glo 2.0); type: cell-based, human; conditions: TNF-α 15 ng/mL; for Necroptosis inhibition assay (Rescue %) 1 μM: compound 1 μM; for Necroptosis inhibition assay (Rescue %) 10 μM: compound 10 μM
Outline: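 Compound is added to cells at final concentrations of 0.1, 1 and 10 μM and left 30 minutes at room temperature. Necroptosis is induced with 15 ng/mL TNF-α, culture continues 20 to 24 hours at 37° C, and ATP-based luminescence reports viability.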

## Nc1ncc(-c2cnn(C3CCN(CCCN4CCN(C(=O)Cc5cccc(NC6=CC(=O)N(C7CCC(=O)NC7=O)C6=O)c5)CC4)CC3)c2)nc1C(=O)O[C@@H](C(=O)Nc1ccc(F)cc1)c1ccccc1 (stereo partly drawn) [TDH-495, (R)-2-((4-fluorophenyl)amino)-2-oxo-1-phenylethyl 3-amino-6-(1-(1-(3-(4-(2-(3-((1-(2,6-dioxopiperidin-3-yl)-2,5-dioxo-2,5-dihydro-1H-pyrrol-3-yl)amino)phenyl)acetyl)piperazin-1-yl)propyl)piperidin-4-yl)-1H-pyrazol-4-yl)pyrazine-2-carboxylate]
MLKL [1]
  Degradation assay (Degradation %) 1 μM: 81.34%
  Degradation assay (Degradation %) 10 μM: 85.73%
MLKL [2]
  Kd: 1.3 nM
FADD−/− Jurkat cells; FADD−/− Jurkat cells
  Necroptosis inhibition assay (Rescue %) 1 μM: 42.19%
  Necroptosis inhibition assay (Rescue %) 10 μM: 17.62%

## Nc1ncc(-c2ccc(N3CCN(CCOCCOCCNC(=O)CNc4ccc5c(c4)C(=O)N(C4CCC(=O)NC4=O)C5=O)CC3)nc2)nc1C(=O)OC(C(=O)Nc1ccc(F)cc1)c1ccccc1 (stereo not shown) [TDH-260, 2-((4-fluorophenyl)amino)-2-oxo-1-phenylethyl 3-amino-6-(6-(4-(2-(2-(2-(2-((2-(2,6-dioxopiperidin-3-yl)-1,3-dioxoisoindolin-5-yl)amino)acetamido)ethoxy)ethoxy)ethyl)piperazin-1-yl)pyridin-3-yl)pyrazine-2-carboxylate]
MLKL [1]
  Degradation assay (Degradation %) 1 μM: 38.65%
  Degradation assay (Degradation %) 10 μM: 53.35%
MLKL [2]
  Kd: 18 nM
FADD−/− Jurkat cells
  Necroptosis inhibition assay (Rescue %) 1 μM: 14.46%
  Necroptosis inhibition assay (Rescue %) 10 μM: 13.52%

## Nc1ncc(-c2cnn(C3CCN(CC4CCN(C(=O)COc5cccc6c5C(=O)N(C5CCC(=O)NC5=O)C6=O)CC4)CC3)c2)nc1C(=O)N[C@@H](C(=O)Nc1ccc(F)cc1)c1ccccc1 (stereo partly drawn) [TDH-186, 3-amino-6-(1-(1-((1-(2-((2-(2,6-dioxopiperidin-3-yl)-1,3-dioxoisoindolin-4-yl)oxy)acetyl)piperidin-4-yl)methyl)piperidin-4-yl)-1H-pyrazol-4-yl)-N-((R)-2-((4-fluorophenyl)amino)-2-oxo-1-phenylethyl)pyrazine-2-carboxamide]
MLKL [1]
  Degradation assay (Degradation %) 1 μM: 14.8%
  Degradation assay (Degradation %) 10 μM: 21.54%
MLKL [2]
  Kd: 75 nM
FADD−/− Jurkat cells
  Necroptosis inhibition assay (Rescue %) 1 μM: 35.73%
  Necroptosis inhibition assay (Rescue %) 10 μM: 35.74%

## Cc1ncsc1-c1ccc(CNC(=O)[C@@H]2C[C@@H](O)CN2C(=O)[C@@H](NC(=O)CN2CCC(CN3CCC(n4cc(-c5cnc(N)c(C(=O)O[C@@H](C(=O)Nc6ccc(F)cc6)c6ccccc6)n5)cn4)CC3)CC2)C(C)(C)C)cc1 [TDH-211, (R)-2-((4-fluorophenyl)amino)-2-oxo-1-phenylethyl 3-amino-6-(1-(1-((1-(2-(((S)-1-((2S,4R)-4-hydroxy-2-((4-(4-methylthiazol-5-yl)benzyl)carbamoyl)pyrrolidin-1-yl)-3,3-dimethyl-1-oxobutan-2-yl)amino)-2-oxoethyl)piperidin-4-yl)methyl)piperidin-4-yl)-1H-pyrazol-4-yl)pyrazine-2-carboxylate]
MLKL [1]
  Degradation assay (Degradation %) 1 μM: 9.7%
  Degradation assay (Degradation %) 10 μM: 29.62%
MLKL [2]
  Kd: 6.3 nM
FADD−/− Jurkat cells
  Necroptosis inhibition assay (Rescue %) 1 μM: 29.87%
  Necroptosis inhibition assay (Rescue %) 10 μM: 41.58%

## Nc1ncc(-c2cnn(C3CCN(CC4CCN(C5=CC(=O)N(C6CCC(=O)NC6=O)C5=O)CC4)CC3)c2)nc1C(=O)O[C@@H](C(=O)Nc1ccc(F)cc1)c1ccccc1 (stereo partly drawn) [TDH-521, (R)-2-((4-fluorophenyl)amino)-2-oxo-1-phenylethyl 3-amino-6-(1-(1-((1-(1-(2,6-dioxopiperidin-3-yl)-2,5-dioxo-2,5-dihydro-1H-pyrrol-3-yl)piperidin-4-yl)methyl)piperidin-4-yl)-1H-pyrazol-4-yl)pyrazine-2-carboxylate]
MLKL [1]
  Degradation assay (Degradation %) 1 μM: 91.54%
  Degradation assay (Degradation %) 10 μM: 78.62%
MLKL [2]
  Kd: 1.5 nM
FADD−/− Jurkat cells; FADD−/− Jurkat cells
  Necroptosis inhibition assay (Rescue %) 1 μM: 0.16%
  Necroptosis inhibition assay (Rescue %) 10 μM: 1.33%

## Nc1ncc(-c2cnn(C3CCN(CC4CN(C(=O)COc5cccc6c5C(=O)N(C5CCC(=O)NC5=O)C6=O)CCO4)CC3)c2)nc1C(=O)OC(C(=O)Nc1ccc(F)cc1)c1ccccc1 (stereo not shown) [TDH-308, 2-((4-fluorophenyl)amino)-2-oxo-1-phenylethyl 3-amino-6-(1-(1-((4-(2-((2-(2,6-dioxopiperidin-3-yl)-1,3-dioxoisoindolin-4-yl)oxy)acetyl)morpholin-2-yl)methyl)piperidin-4-yl)-1H-pyrazol-4-yl)pyrazine-2-carboxylate]
MLKL [1]
  Degradation assay (Degradation %) 1 μM: 55.12%
  Degradation assay (Degradation %) 10 μM: 69.64%
MLKL [2]
  Kd: 1.7 nM
FADD−/− Jurkat cells
  Necroptosis inhibition assay (Rescue %) 1 μM: 76.28%
  Necroptosis inhibition assay (Rescue %) 10 μM: 56.73%

## Nc1ncc(-c2cnn(C3CCN(C(=O)c4cn(C5CCN(C(=O)COc6ccc7c(c6)C(=O)N(C6CCC(=O)NC6=O)C7=O)CC5)cn4)CC3)c2)nc1C(=O)O[C@@H](C(=O)Nc1ccc(F)cc1)c1ccccc1 (stereo partly drawn) [TDH-355, (R)-2-((4-fluorophenyl)amino)-2-oxo-1-phenylethyl 3-amino-6-(1-(1-(1-(1-(2-((2-(2,6-dioxopiperidin-3-yl)-1,3-dioxoisoindolin-5-yl)oxy)acetyl)piperidin-4-yl)-1H-imidazole-4-carbonyl)piperidin-4-yl)-1H-pyrazol-4-yl)pyrazine-2-carboxylate]
MLKL [1]
  Degradation assay (Degradation %) 1 μM: 59.51%
  Degradation assay (Degradation %) 10 μM: 61.42%
MLKL [2]
  Kd: 1.9 nM
FADD−/− Jurkat cells
  Necroptosis inhibition assay (Rescue %) 1 μM: 22.40%
  Necroptosis inhibition assay (Rescue %) 10 μM: 26.54%

## Nc1ncc(-c2cnn(C3CCN(C(=O)COC4CCN(C(=O)COc5cccc6c5C(=O)N(C5CCC(=O)NC5=O)C6=O)CC4)CC3)c2)nc1C(=O)O[C@@H](C(=O)Nc1ccc(F)cc1)c1ccccc1 (stereo partly drawn) [TDH-393, (R)-2-((4-fluorophenyl)amino)-2-oxo-1-phenylethyl 3-amino-6-(1-(1-(2-((1-(2-((2-(2,6-dioxopiperidin-3-yl)-1,3-dioxoisoindolin-4-yl)oxy)acetyl)piperidin-4-yl)oxy)acetyl)piperidin-4-yl)-1H-pyrazol-4-yl)pyrazine-2-carboxylate]
MLKL [1]
  Degradation assay (Degradation %) 1 μM: 73.39%
  Degradation assay (Degradation %) 10 μM: 82.10%
MLKL [2]
  Kd: 0.99 nM
FADD−/− Jurkat cells
  Necroptosis inhibition assay (Rescue %) 1 μM: 27.21%
  Necroptosis inhibition assay (Rescue %) 10 μM: 38.01%

## Nc1ncc(-c2cnn(C3CCN(CCCCCCNC(=O)C4CCN(c5ccc6c(c5)C(=O)N(C5CCC(=O)NC5=O)C6=O)CC4)CC3)c2)nc1C(=O)O[C@@H](C(=O)Nc1ccc(F)cc1)c1ccccc1 (stereo partly drawn) [TDH-109, (R)-2-((4-fluorophenyl)amino)-2-oxo-1-phenylethyl 3-amino-6-(1-(1-(6-(1-(2-(2,6-dioxopiperidin-3-yl)-1,3-dioxoisoindolin-5-yl)piperidine-4-carboxamido)hexyl)piperidin-4-yl)-1H-pyrazol-4-yl)pyrazine-2-carboxylate]
MLKL [1]
  Degradation assay (Degradation %) 1 μM: 48.55%
  Degradation assay (Degradation %) 10 μM: 56.91%
MLKL [2]
  Kd: 2.8 nM
FADD−/− Jurkat cells
  Necroptosis inhibition assay (Rescue %) 1 μM: 71.74%
  Necroptosis inhibition assay (Rescue %) 10 μM: 48.69%

## Nc1ncc(-c2cnn(C3CCN(CCOC4CCN(C(=O)COc5cccc6c5C(=O)N(C5CCC(=O)NC5=O)C6=O)CC4)CC3)c2)nc1C(=O)OC(C(=O)Nc1ccc(F)cc1)c1ccccc1 (stereo not shown) [TDH-251, 2-((4-fluorophenyl)amino)-2-oxo-1-phenylethyl 3-amino-6-(1-(1-(2-((1-(2-((2-(2,6-dioxopiperidin-3-yl)-1,3-dioxoisoindolin-4-yl)oxy)acetyl)piperidin-4-yl)oxy)ethyl)piperidin-4-yl)-1H-pyrazol-4-yl)pyrazine-2-carboxylate]
MLKL [1]
  Degradation assay (Degradation %) 1 μM: 72.87%
  Degradation assay (Degradation %) 10 μM: 63.25%
MLKL [2]
  Kd: 1.8 nM
FADD−/− Jurkat cells
  Necroptosis inhibition assay (Rescue %) 1 μM: 84.44%
  Necroptosis inhibition assay (Rescue %) 10 μM: 74.61%

## Nc1ncc(-c2cnn(C3CCN(C(=O)COC4CCN(C(=O)COc5ccc6c(c5)C(=O)N(C5CCC(=O)NC5=O)C6=O)CC4)CC3)c2)nc1C(=O)O[C@@H](C(=O)Nc1ccc(F)cc1)c1ccccc1 (stereo partly drawn) [TDH-394, (R)-2-((4-fluorophenyl)amino)-2-oxo-1-phenylethyl 3-amino-6-(1-(1-(2-((1-(2-((2-(2,6-dioxopiperidin-3-yl)-1,3-dioxoisoindolin-5-yl)oxy)acetyl)piperidin-4-yl)oxy)acetyl)piperidin-4-yl)-1H-pyrazol-4-yl)pyrazine-2-carboxylate]
MLKL [1]
  Degradation assay (Degradation %) 1 μM: 60.83%
  Degradation assay (Degradation %) 10 μM: 94.76%
MLKL [2]
  Kd: 2.8 nM
FADD−/− Jurkat cells
  Necroptosis inhibition assay (Rescue %) 1 μM: 47.22%
  Necroptosis inhibition assay (Rescue %) 10 μM: 53.54%

From patent publication US20240252488A1 (KOREA RESEARCH INSTITUTE OF CHEMICAL TECHNOLOGY, priority 2020, published 2024)
